Data taken from US10072304B2, “Nuclear localization of Src-family tyrosine kinases is required for growth factor-induced euchromatinization” (National University Corporation Chiba University, priority 2009, dated 2018).
“Also recorded” adds a separate entry of the source.

Tested on: SYF cells
Experiment: Quantitation of chromatin condensation levels (S.D. value of PI intensity per pixel) in SYF cells
Format: cell-based, mouse
Conditions: 3 mM Na3VO4 for 3 h
Experimental: COS-1, HeLa cells (Japanese Collection of Research Bioresources, Osaka), MCF-7 (provided by H. Saya), A431 (provided by M. N. Fukuda), HEK293 (provided by M. Tagawa), HCT116 (provided by T. Tomonaga), and SYF ([37]; provided by M. Okada and S. Nada) cells were cultured in Iscove's modified DME containing 5% fetal bovine serum (FBS). Cells were transiently transfected with 0.5 μg of plasmid vector using Trans IT Transfection reagent (Mirus) or with 1 μg of plasmid vector using linear polyethylenimine (25 kDa) (Polyscience, Inc.). For growth factor stimulation, COS-1 cells were starved under low serum conditions (0.05% FBS) for 24 h and restimulated with serum (5% FBS). […]
Confocal and Nomarski differential-interference-contrast images were obtained using a Fluoview FV500 confocal laser scanning microscope with a 40×1.00 NA oil and a 100×1.35 NA oil immersion objective (Olympus, Tokyo) and an LSM 510 confocal laser scanning microscope with a 63×1.40 NA oil immersion objective (Zeiss), as described. […] Emission signals were detected between 505 and 525 nm for fluorescein, at more than 560 nm for rhodamine and more than 610 nm for PI [44]. […] Fluorescence intensity plots of anti-histone H3K4me3, anti-ATF-2 pT69/71 and anti-HP1α antibody and PI staining (see FIGS. 18B, 19B, and 20B, respectively) were generated using Fluoview version 4.3 software (Olympus, Tokyo). […]

Structure (SMILES): [Na+].[Na+].[Na+].[O]=[V]([O-])([O-])[O-] [Na3VO4, sodium orthovanadate]
- levels of chromatin hypo- and hypercondensation (SYF cells, FIG. 49): much lower than those in Na3VO4-treated COS-1 cells; also recorded: modestly induced
- chromatin hypo- and hypercondensation (SYF/c-Src-wt cells, FIGS. 48A and 49): an increase
